In publication PMC6784244 (Toxins, 2019):

Details: pH 7.4

SMILES	critical pressure of insertion, Cardiolipin
CC(C)[C@H]1C(=O)O[C@H](C(C)C)C(=O)N(C)[C@@H](C(C)C)C(=O)O[C@H](C(C)C)C(=O)N(C)[C@@H](C(C)C)C(=O)O[C@H](C(C)C)C(=O)N1C [ENN B]	33.29 mN/m
CC[C@H](C)[C@H]1C(=O)O[C@H](C(C)C)C(=O)N(C)[C@@H](C(C)C)C(=O)O[C@H](C(C)C)C(=O)N(C)[C@@H](C(C)C)C(=O)O[C@H](C(C)C)C(=O)N1C [ENN B1]	43.51 mN/m
CC[C@H](C)[C@H]1C(=O)O[C@H](C(C)C)C(=O)N(C)[C@@H]([C@@H](C)CC)C(=O)O[C@H](C(C)C)C(=O)N(C)[C@@H]([C@@H](C)CC)C(=O)O[C@H](C(C)C)C(=O)N1C [ENN A]	49.72 mN/m
CC(C)[C@H]1OC(=O)[C@H](Cc2ccccc2)N(C)C(=O)[C@@H](C(C)C)OC(=O)[C@H](Cc2ccccc2)N(C)C(=O)[C@@H](C(C)C)OC(=O)[C@H](Cc2ccccc2)N(C)C1=O [BEA, Beauvericin]	--
CC[C@H](C)[C@H]1C(=O)O[C@H](C(C)C)C(=O)N(C)[C@@H]([C@@H](C)CC)C(=O)O[C@H](C(C)C)C(=O)N(C)[C@@H](C(C)C)C(=O)O[C@H](C(C)C)C(=O)N1C [ENN A1]	48.57 mN/m
